Assay results from patent publication US20140309295A1, “ANTIEPILEPTIC, HYPOCHOLESTEROLEMIC AND NEUROPROTECTIVE COMPOUND” (NEURON BIOPHARMA, S.A., priority 2009, published 2014).

How the values were obtained:
[1] = system: FVB/NHan mice inoculated with kainate (KA); assay: Integral memory test (temporal and spatial memory) in mice after kainate; assay type: in vivo
Protocol: All the animals included for the experimental process were 12-week old males of the FVB/NHan strain. The experiments were conducted strictly following the Guidance on the Operation of Animals (Scientific Procedures, Act. 1986). The animals had their respective quarantine period and were treated with maximum precaution to minimize possible contaminations for inoculations and handling.
Twenty-eight animals were used in this assay and the treatments were all conducted by intraperitoneal (i.p.) route with a volume of 100 μl, according to the following regimens: • i) PBS+PBS+PBS regimen: 4 animals were initially treated with PBS with a daily dose for 2 days, on the second day the animals were inoculated with a new dose of PBS and for the following 3 days with a daily dose of PBS. • ii) PBS+KA+PBS regimen: 6 animals were initially treated with PBS with a daily dose for 2 days, on the second day the animals were inoculated with a dose of kainate at 25 mg/Kg and for the following 3 days with a daily dose of PBS. • iii) PBS+KA+NST0037 regimen: 7 animals were initially treated with PBS with a daily dose for 2 days, on the second day the animals were inoculated with a dose of kainate at 25 mg/Kg and for the following 3 days with a daily dose of NST0037 at 50 mg/kg. • iv) NST0037+KA+NST0037 regimen: 6 animals were initially treated with a daily dose for 2 days with NST0037 at 50 mg/kg, on the second day the animals were inoculated with a dose of kainate at 25 mg/Kg and for the following 3 days with a daily dose of NST0037 at 50 mg/kg. • v) NST0037+PBS+NST0037 regimen: 5 animals were initially treated with a daily dose for 2 days with NST0037 at 50 mg/kg, on the second day the animals were inoculated with a dose of PBS and for the following 3 days with a daily dose of NST0037 at 50 mg/kg.
Three days after inoculation of KA, an object recognition test called integral memory test was performed on the animals.

seladin-1/DHCR24 gene = seladin-1/DHCR24 gene expression in brain of wild-type mice; assay type: in vivo; conditions: 50 mg/kg oral, 4 hours, male C57BL6 mice
Protocol: A control group received only the vehicle, which consisted of 0.25% carboxy methylcellulose in physiological saline. 4 hours after the oral administrations, the animals were sacrificed under gas anesthesia with isoflurane and the brains, previously perfused with PBS, were removed and immediately afterwards frozen in liquid nitrogen. Subsequently, the total RNA of the brain was extracted by means of the High Pure RNA Isolation kit (Roche) and the amount and quality of the RNA were analyzed by means of spectrophotometry (Infinite 200 with NanoQuant, Tecan) and viewing of the 18S and 28S bands by means of electrophoresis. The RT-PCR was performed by means of two steps, first, the mRNA was changed to cDNA using the RNA to cDNA kit (Applied Biosystem) and the gene expression was subsequently analyzed by means of TagMan probes using the validated probes Mn00519071_m1 for seladin-1/DHCR24 and Hs99999901_s1 for 18S (used to normalize the results) in the 7500 Fast Real-Time PCR System equipment (Applied Biosystem). The relative amount of the gene expression was determined by using the ΔΔCt method with the SDS v2.1.1 software (Applied Biosystem); the expression of 18S was used to normalize the measurement.

CCC(CC)C(=O)O[C@H]1C[C@@H](C)C=C2C=C[C@H](C)[C@H](CC[C@@H]3C[C@@H](O)CC(=O)O3)[C@H]21 [NST0037, (1S,2S,6R,8S,8aR)-1,2,6,7,8,8a-hexahydro-3,7-dimethyl-8-[2-[(2R,4R)-tetrahydro-4-hydroxy-6-oxo-2H-pyran-2-yl]ethyl]-1-naphthalenyl-2-ethyl-butyrate]
spatial memory ([1]; NST0037+KA+NST0037 regimen, 50 mg/kg i.p.): spatial memory is intact
temporal memory ([1]; NST0037+KA+NST0037 regimen, 50 mg/kg i.p., 3 days after KA): prevented the reduction in the temporal memory capacity
spatial memory ([1]; NST0037+PBS+NST0037 regimen): spatial memory is intact
temporal memory ([1]; NST0037+PBS+NST0037 regimen, vs PBS+PBS+PBS): improvement of the temporal memory
spatial memory ([1]; PBS+KA+NST0037 regimen, 50 mg/kg i.p.): improvement of this type of memory
temporal memory ([1]; PBS+KA+NST0037 regimen, 50 mg/kg i.p., 3 days after KA): improvement of the state of the temporal memory
seladin-1/DHCR24 gene expression in brain (seladin-1/DHCR24 gene): increased the gene expression
